{"source": "ChEMBL document CHEMBL5723584", "about": "(2023)", "conditions_in_all_cases": "Compound concentration 1.0 uM", "key": {"[1]": {"target": "Tyrosine-protein kinase Mer (Homo sapiens) (UniProt Q12866)", "assay": "activity of Mer(h) at 1.0 µM in the Eurofins Kinase panel"}, "[2]": {"target": "Tyrosine-protein kinase SYK (Homo sapiens) (UniProt P43405)", "assay": "activity of Syk(h) at 1.0 µM in the Eurofins Kinase panel"}, "[3]": {"target": "Bone morphogenetic protein receptor type-2 (Homo sapiens) (UniProt Q13873)", "assay": "activity of BMPR2(h) at 1.0 µM in the Eurofins Kinase panel"}, "[4]": {"target": "PI3K p110 beta/p85 alpha (Homo sapiens) (UniProt P27986+P42338)", "assay": "activity of PI3 Kinase (p110beta/p85alpha)(h) at 1.0 µM in the Eurofins Kinase panel", "type": "protein-complex assay"}, "[5]": {"target": "Protein-tyrosine kinase 6 (Homo sapiens) (UniProt Q13882)", "assay": "activity of BRK(h) at 1.0 µM in the Eurofins Kinase panel"}, "[6]": {"target": "Fibroblast growth factor receptor 2 (Homo sapiens) (UniProt P21802)", "assay": "activity of FGFR2(h) at 1.0 µM in the Eurofins Kinase panel"}, "[7]": {"target": "Tyrosine-protein kinase Fgr (Homo sapiens) (UniProt P09769)", "sequence (P09769 2-529 limits assumed)": "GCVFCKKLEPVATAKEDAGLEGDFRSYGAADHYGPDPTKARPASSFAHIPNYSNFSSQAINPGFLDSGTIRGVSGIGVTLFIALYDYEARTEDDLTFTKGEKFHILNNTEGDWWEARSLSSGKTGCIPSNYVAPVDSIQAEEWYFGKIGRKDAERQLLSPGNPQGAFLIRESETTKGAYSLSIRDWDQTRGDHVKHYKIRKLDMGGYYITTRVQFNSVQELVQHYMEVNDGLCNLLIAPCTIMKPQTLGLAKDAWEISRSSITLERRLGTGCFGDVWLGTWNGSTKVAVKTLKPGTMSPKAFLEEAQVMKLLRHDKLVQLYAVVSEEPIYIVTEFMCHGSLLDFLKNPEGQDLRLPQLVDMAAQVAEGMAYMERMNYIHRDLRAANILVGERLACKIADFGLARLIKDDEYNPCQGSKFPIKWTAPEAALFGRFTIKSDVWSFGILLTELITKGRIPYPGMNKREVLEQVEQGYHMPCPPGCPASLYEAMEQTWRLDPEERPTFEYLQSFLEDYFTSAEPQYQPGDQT", "assay": "activity of Fgr(h) at 1.0 µM in the Eurofins Kinase panel"}, "Homo sapiens": {"species": "Homo sapiens", "assay": "activity of MAPK2(h) at 1.0 µM in the Eurofins Kinase panel"}, "[8]": {"target": "Serine/threonine-protein kinase OSR1 (Homo sapiens) (UniProt O95747)", "sequence (O95747 2-527 limits assumed)": "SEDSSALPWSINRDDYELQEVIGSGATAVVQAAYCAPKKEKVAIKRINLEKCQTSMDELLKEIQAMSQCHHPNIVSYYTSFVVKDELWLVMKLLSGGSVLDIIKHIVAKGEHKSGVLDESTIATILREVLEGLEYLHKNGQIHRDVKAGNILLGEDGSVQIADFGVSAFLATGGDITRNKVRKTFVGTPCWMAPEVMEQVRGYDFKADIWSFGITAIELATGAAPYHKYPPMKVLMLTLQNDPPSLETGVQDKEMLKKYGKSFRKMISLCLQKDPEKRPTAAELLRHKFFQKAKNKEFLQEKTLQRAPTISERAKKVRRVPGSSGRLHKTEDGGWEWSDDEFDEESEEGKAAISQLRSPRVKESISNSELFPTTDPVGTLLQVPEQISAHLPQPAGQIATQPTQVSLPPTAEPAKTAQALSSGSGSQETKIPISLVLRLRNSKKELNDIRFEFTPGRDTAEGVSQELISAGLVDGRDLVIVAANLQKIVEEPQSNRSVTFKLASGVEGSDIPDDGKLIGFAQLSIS", "assay": "activity of OSR1(h) at 1.0 µM in the Eurofins Kinase panel"}, "[9]": {"target": "Protein kinase C delta type (Homo sapiens) (UniProt Q05655)", "sequence (Q05655 whole entry, looked up)": "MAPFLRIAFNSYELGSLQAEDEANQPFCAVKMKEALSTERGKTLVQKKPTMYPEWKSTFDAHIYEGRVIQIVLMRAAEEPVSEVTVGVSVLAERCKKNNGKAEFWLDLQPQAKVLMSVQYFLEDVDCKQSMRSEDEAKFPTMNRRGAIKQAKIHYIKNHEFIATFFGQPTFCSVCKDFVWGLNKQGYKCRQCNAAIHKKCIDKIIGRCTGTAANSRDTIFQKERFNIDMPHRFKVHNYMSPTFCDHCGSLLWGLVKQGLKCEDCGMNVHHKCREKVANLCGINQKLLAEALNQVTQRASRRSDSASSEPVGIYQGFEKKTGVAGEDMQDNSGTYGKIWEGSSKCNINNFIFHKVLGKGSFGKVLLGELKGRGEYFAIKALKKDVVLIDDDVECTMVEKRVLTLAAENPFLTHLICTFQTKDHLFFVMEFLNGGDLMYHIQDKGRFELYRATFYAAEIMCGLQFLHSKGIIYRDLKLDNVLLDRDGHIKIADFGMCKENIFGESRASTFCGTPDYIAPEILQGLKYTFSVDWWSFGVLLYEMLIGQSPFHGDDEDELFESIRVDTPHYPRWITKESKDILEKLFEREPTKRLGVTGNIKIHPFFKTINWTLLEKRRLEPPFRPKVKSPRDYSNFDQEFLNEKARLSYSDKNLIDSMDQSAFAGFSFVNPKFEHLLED", "assay": "activity of PKCdelta(h) at 1.0 µM in the Eurofins Kinase panel"}, "[10]": {"target": "Tyrosine-protein kinase FRK (Homo sapiens) (UniProt P42685)", "sequence (P42685 whole entry)": "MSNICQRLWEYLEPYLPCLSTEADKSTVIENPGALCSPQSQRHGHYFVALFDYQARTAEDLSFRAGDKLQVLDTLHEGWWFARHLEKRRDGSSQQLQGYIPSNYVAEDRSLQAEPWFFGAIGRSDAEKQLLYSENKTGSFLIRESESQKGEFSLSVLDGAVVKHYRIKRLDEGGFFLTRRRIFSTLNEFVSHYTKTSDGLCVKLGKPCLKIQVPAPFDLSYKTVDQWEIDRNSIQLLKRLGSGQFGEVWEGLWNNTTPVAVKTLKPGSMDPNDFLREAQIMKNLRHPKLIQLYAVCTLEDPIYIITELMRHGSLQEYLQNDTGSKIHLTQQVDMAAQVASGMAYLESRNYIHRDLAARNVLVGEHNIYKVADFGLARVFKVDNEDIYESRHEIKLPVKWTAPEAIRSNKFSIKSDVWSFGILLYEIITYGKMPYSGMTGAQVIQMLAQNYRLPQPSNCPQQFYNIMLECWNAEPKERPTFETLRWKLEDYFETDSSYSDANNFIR", "assay": "activity of PTK5(h) at 1.0 µM in the Eurofins Kinase panel"}, "[11]": {"target": "Serine/threonine-protein kinase NLK (Homo sapiens) (UniProt Q9UBE8)", "assay": "activity of NLK(h) at 1.0 µM in the Eurofins Kinase panel"}, "[12]": {"target": "Wee1-like protein kinase 2 (Homo sapiens) (UniProt P0C1S8)", "sequence (P0C1S8 whole entry, looked up)": "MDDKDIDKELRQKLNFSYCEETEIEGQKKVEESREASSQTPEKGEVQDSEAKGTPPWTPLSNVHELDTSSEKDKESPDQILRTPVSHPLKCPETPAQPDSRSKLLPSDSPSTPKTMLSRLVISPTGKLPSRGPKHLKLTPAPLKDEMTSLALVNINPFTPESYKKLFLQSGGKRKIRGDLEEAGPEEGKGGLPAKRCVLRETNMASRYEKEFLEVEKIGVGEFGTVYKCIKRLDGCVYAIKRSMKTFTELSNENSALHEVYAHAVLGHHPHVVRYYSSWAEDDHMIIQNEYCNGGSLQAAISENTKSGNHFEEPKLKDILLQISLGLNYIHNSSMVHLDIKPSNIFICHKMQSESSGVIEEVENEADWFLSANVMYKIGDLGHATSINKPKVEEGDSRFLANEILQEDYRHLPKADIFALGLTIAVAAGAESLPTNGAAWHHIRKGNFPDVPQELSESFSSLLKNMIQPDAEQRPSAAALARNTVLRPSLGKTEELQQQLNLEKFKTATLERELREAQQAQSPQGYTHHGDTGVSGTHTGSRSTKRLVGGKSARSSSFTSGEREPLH", "assay": "activity of Wee1B(h) at 1.0 µM in the Eurofins Kinase panel"}, "[13]": {"target": "STE20-like serine/threonine-protein kinase (Homo sapiens) (UniProt Q9H2G2)", "sequence (Q9H2G2 whole entry, looked up)": "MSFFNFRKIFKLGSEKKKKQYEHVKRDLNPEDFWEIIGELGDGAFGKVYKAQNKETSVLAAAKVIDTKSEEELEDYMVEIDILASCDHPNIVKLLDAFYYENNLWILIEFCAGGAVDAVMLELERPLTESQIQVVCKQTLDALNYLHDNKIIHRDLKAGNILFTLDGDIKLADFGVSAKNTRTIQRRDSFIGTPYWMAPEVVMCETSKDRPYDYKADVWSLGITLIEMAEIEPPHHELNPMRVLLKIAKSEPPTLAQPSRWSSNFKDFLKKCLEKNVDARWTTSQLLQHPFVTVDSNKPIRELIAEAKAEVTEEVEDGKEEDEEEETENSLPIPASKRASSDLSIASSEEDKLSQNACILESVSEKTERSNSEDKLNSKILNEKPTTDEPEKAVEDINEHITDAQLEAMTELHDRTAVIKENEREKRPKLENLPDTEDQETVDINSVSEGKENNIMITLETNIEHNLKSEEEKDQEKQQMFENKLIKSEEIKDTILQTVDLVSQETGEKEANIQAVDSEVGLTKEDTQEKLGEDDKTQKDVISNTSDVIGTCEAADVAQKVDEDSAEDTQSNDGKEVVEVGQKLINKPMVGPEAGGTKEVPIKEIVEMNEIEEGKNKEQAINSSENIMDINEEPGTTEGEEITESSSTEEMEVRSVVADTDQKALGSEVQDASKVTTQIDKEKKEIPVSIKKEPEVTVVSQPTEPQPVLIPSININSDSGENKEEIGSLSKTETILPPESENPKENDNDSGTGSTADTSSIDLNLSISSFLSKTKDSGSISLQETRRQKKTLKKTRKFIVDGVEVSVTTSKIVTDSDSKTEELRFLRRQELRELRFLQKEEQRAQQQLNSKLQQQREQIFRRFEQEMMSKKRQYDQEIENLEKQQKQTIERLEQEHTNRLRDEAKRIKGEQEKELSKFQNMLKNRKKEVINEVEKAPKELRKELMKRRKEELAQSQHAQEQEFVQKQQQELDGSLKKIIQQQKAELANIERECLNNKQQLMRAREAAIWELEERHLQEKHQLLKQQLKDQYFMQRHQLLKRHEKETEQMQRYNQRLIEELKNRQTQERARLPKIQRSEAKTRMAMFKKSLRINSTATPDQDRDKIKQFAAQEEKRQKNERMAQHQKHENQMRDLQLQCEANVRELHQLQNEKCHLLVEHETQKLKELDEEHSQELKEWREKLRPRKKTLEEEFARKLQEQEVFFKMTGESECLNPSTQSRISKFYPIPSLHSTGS", "assay": "activity of SLK(h) at 1.0 µM in the Eurofins Kinase panel"}, "[14]": {"target": "Non-receptor tyrosine-protein kinase TYK2 (Homo sapiens) (UniProt P29597)", "assay": "activity of TYK2(h) at 1.0 µM in the Eurofins Kinase panel"}, "[15]": {"target": "PAS domain-containing serine/threonine-protein kinase (Homo sapiens) (UniProt Q96RG2)", "assay": "activity of PASK(h) at 1.0 µM in the Eurofins Kinase panel"}, "[16]": {"target": "Ribosomal protein S6 kinase alpha-6 (Homo sapiens) (UniProt Q9UK32)", "assay": "activity of Rsk4(h) at 1.0 µM in the Eurofins Kinase panel"}, "[17]": {"target": "Serine/threonine-protein kinase DCLK2 (Homo sapiens) (UniProt Q8N568)", "assay": "activity of DCAMKL2(h) at 1.0 µM in the Eurofins Kinase panel"}, "[18]": {"target": "Activin receptor type-1 (Homo sapiens) (UniProt Q04771)", "assay": "activity of ALK2(h) at 1.0 µM in the Eurofins Kinase panel"}, "[19]": {"target": "3-phosphoinositide-dependent protein kinase 1 (Homo sapiens) (UniProt O15530)", "assay": "activity of PDK1(h) at 1.0 µM in the Eurofins Kinase panel"}, "[20]": {"target": "LIM domain kinase 1 (Homo sapiens) (UniProt P53667)", "sequence (P53667 whole entry, looked up, the tested form may be a part)": "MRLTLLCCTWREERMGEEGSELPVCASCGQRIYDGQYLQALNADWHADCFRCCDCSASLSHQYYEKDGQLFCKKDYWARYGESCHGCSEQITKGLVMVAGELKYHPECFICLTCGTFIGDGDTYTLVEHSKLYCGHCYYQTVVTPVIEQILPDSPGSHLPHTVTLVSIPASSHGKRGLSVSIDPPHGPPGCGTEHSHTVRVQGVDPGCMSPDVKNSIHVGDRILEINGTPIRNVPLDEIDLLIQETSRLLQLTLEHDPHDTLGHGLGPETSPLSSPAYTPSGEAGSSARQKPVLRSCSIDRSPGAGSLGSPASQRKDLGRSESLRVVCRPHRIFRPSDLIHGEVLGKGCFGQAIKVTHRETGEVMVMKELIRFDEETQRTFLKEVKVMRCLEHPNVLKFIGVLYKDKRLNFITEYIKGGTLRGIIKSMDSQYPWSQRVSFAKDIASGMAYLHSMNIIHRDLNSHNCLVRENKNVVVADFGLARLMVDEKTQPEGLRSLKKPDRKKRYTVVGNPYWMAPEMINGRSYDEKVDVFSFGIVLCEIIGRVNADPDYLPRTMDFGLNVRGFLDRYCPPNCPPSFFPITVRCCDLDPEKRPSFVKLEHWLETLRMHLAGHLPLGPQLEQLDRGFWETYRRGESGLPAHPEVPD", "assay": "activity of LIMK1(h) at 1.0 µM in the Eurofins Kinase panel"}, "[21]": {"target": "Dual specificity tyrosine-phosphorylation-regulated kinase 1A (Homo sapiens) (UniProt Q13627)", "assay": "activity of DYRK1A(h) at 1.0 µM in the Eurofins Kinase panel"}, "[22]": {"target": "MAP kinase-activated protein kinase 2 (Homo sapiens) (UniProt P49137)", "assay": "activity of MAPKAP-K2(h) at 1.0 µM in the Eurofins Kinase panel"}, "[23]": {"target": "Cyclin-dependent kinase-like 4 (Homo sapiens) (UniProt Q5MAI5)", "assay": "activity of CDKL4(h) at 1.0 µM in the Eurofins Kinase panel"}, "[24]": {"target": "Calcium/calmodulin-dependent protein kinase kinase 2 (Homo sapiens) (UniProt Q96RR4)", "assay": "activity of CaMKK2(h) at 1.0 µM in the Eurofins Kinase panel"}}}
{"molecule": "Cc1cc2c(-c3ccc(NC(=O)[C@H](N)CC(C)(C)C)cc3C)ccnc2[nH]1", "values": [{"measurement": "activity", "setting": "[1]", "value": 105, "unit": "%"}, {"measurement": "activity", "setting": "[2]", "value": 66, "unit": "%"}, {"measurement": "activity", "setting": "[3]", "value": 85, "unit": "%"}, {"measurement": "activity", "setting": "[4]", "value": 102, "unit": "%"}, {"measurement": "activity", "setting": "[5]", "value": 83, "unit": "%"}, {"measurement": "activity", "setting": "[6]", "value": 89, "unit": "%"}, {"measurement": "activity", "setting": "[7]", "value": 97, "unit": "%"}, {"measurement": "activity", "setting": "Homo sapiens", "value": 109, "unit": "%"}, {"measurement": "activity", "setting": "[8]", "value": 80, "unit": "%"}, {"measurement": "activity", "setting": "[9]", "value": 93, "unit": "%"}, {"measurement": "activity", "setting": "[10]", "value": 90, "unit": "%"}, {"measurement": "activity", "setting": "[11]", "value": 98, "unit": "%"}, {"measurement": "activity", "setting": "[12]", "value": 88, "unit": "%"}, {"measurement": "activity", "setting": "[13]", "value": 109, "unit": "%"}, {"measurement": "activity", "setting": "[14]", "value": 103, "unit": "%"}, {"measurement": "activity", "setting": "[15]", "value": 72, "unit": "%"}, {"measurement": "activity", "setting": "[16]", "value": 101, "unit": "%"}, {"measurement": "activity", "setting": "[17]", "value": 104, "unit": "%"}, {"measurement": "activity", "setting": "[18]", "value": 122, "unit": "%"}, {"measurement": "activity", "setting": "[19]", "value": 105, "unit": "%"}, {"measurement": "activity", "setting": "[20]", "value": 70, "unit": "%"}, {"measurement": "activity", "setting": "[21]", "value": 112, "unit": "%"}, {"measurement": "activity", "setting": "[22]", "value": 72, "unit": "%"}, {"measurement": "activity", "setting": "[23]", "value": 104, "unit": "%"}, {"measurement": "activity", "setting": "[24]", "value": 96, "unit": "%"}]}
